The text below walks through data of PubChem BioAssay AID1745844 (Carcinogenic Potency Database (CPDB), 2022).

For this series, the system named is rodent lifetime carcinogenesis bioassay, tumor incidence TD50. Put plainly: carcinogenic potency in animals, long-term in vivo studies, CPDB compilation (AID 1745844).

Where “and” joins values, the source holds several entries; their conditions need not be identical. Equal entries are not always repeated. Calls of active or inactive are those of the source. How the calls were made is not given here.

In the case of `Clc1ccccc1`, the TD50 reads like this: (mouse, strain B6C3F1, females, by gavage, site: any site (literature study), lesion: several types, types named in the paper, dosed 103 weeks, study length 105 weeks) 373 mg/kg/day (inactive); (mouse, strain B6C3F1, females, by gavage, site: liver, lesion: hepatocellular adenoma + hepatocellular carcinoma + neoplastic nodule, dosed 103 weeks, study length 105 weeks) 235 mg/kg/day; (mouse, strain B6C3F1, females, by gavage, site: lung, lesion: alveolar/bronchiolar adenoma + alveolar/bronchiolar carcinoma, dosed 103 weeks, study length 105 weeks) 623 mg/kg/day; (mouse, strain B6C3F1, males, by gavage, site: any site (literature study), lesion: several types, types named in the paper, dosed 103 weeks, study length 105 weeks) 60.1 mg/kg/day (inactive); (mouse, strain B6C3F1, males, by gavage, site: liver, lesion: hepatocellular adenoma + hepatocellular carcinoma + neoplastic nodule, dosed 103 weeks, study length 105 weeks) 382 mg/kg/day; (mouse, strain B6C3F1, males, by gavage, site: lung, lesion: alveolar/bronchiolar adenoma + alveolar/bronchiolar carcinoma, dosed 103 weeks, study length 105 weeks) 190 mg/kg/day. Further, the TD50 was 867 mg/kg/day (rat, strain Fischer 344, females, by gavage, site: liver, lesion: hepatocellular adenoma + hepatocellular carcinoma + neoplastic nodule, dosed 103 weeks, study length 104 weeks); 520 mg/kg/day (inactive) (rat, strain Fischer 344, females, by gavage, site: parathyroid + thyroid gland + thyroid follicle, lesion: adenoma, NOS + follicular-cell carcinoma + cystadenoma, NOS, dosed 103 weeks, study length 104 weeks); 190 mg/kg/day (rat, strain Fischer 344, males, by gavage, site: any site (literature study), lesion: several types, types named in the paper, dosed 103 weeks, study length 104 weeks); 328 mg/kg/day (rat, strain Fischer 344, males, by gavage, site: liver, lesion: hepatocellular adenoma + hepatocellular carcinoma + neoplastic nodule, dosed 103 weeks, study length 104 weeks); 247 mg/kg/day (rat, strain Fischer 344, males, by gavage, site: liver, lesion: neoplastic nodule, dosed 103 weeks, study length 104 weeks).
As to `COP(=O)(OC)OC(=CCl)c1cc(Cl)c(Cl)cc1Cl`, the TD50 (mouse, strain B6C3F1, females, in feed, site: any site (literature study), lesion: several types, types named in the paper, dosed 80 weeks, study length 92 weeks) is 7880 mg/kg/day; the TD50 (mouse, strain B6C3F1, females, in feed, site: kidney, lesion: several types, types named in the paper, dosed 103 weeks, study length 103 weeks) is 32100 mg/kg/day; the TD50 (mouse, strain B6C3F1, females, in feed, site: liver, lesion: hepatocellular adenoma + hepatocellular carcinoma + neoplastic nodule, dosed 80 weeks, study length 92 weeks) is 905 mg/kg/day; the TD50 (mouse, strain B6C3F1, females, in feed, site: liver, lesion: hepatocellular carcinoma + neoplastic nodule, dosed 80 weeks, study length 90 weeks) is 1070 mg/kg/day; the TD50 (mouse, strain B6C3F1, females, in feed, site: liver, lesion: hepatocellular carcinoma + neoplastic nodule, dosed 80 weeks, study length 92 weeks) was 905 mg/kg/day; the TD50 (mouse, strain B6C3F1, females, in feed, site: liver, lesion: hepatocellular carcinoma, dosed 103 weeks, study length 103 weeks) was 12400 mg/kg/day and 8990 mg/kg/day. The TD50 was 1380 mg/kg/day (mouse, strain B6C3F1, females, in feed, site: liver, lesion: neoplastic nodule, dosed 80 weeks, study length 90 weeks); 10200 mg/kg/day and 6330 mg/kg/day (mouse, strain B6C3F1, females, in feed, site: liver, lesion: several types, types named in the paper, dosed 103 weeks, study length 103 weeks); 7790 mg/kg/day (mouse, strain B6C3F1, females, in feed, site: lung, lesion: alveolar/bronchiolar adenoma + alveolar/bronchiolar carcinoma, dosed 80 weeks, study length 92 weeks); 295 mg/kg/day (mouse, strain B6C3F1, males, in feed, site: any site (literature study), lesion: several types, types named in the paper, dosed 80 weeks, study length 92 weeks); 4420 mg/kg/day (mouse, strain B6C3F1, males, in feed, site: kidney, lesion: several types, types named in the paper, dosed 103 weeks, study length 103 weeks); 37600 mg/kg/day (mouse, strain B6C3F1, males, in feed, site: kidney, lesion: tubular adenoma, dosed 103 weeks, study length 103 weeks). Moreover, the TD50 was 5260 mg/kg/day (mouse, strain B6C3F1, males, in feed, site: kidney, lesion: tubular carcinoma, dosed 103 weeks, study length 103 weeks); 228 mg/kg/day (mouse, strain B6C3F1, males, in feed, site: liver, lesion: hepatocellular adenoma + hepatocellular carcinoma + neoplastic nodule, dosed 80 weeks, study length 92 weeks); 18300 mg/kg/day (mouse, strain B6C3F1, males, in feed, site: liver, lesion: hepatocellular adenoma, dosed 103 weeks, study length 103 weeks); 280 mg/kg/day (mouse, strain B6C3F1, males, in feed, site: liver, lesion: hepatocellular carcinoma + neoplastic nodule, dosed 80 weeks, study length 90 weeks); 228 mg/kg/day (mouse, strain B6C3F1, males, in feed, site: liver, lesion: hepatocellular carcinoma + neoplastic nodule, dosed 80 weeks, study length 92 weeks); 534 mg/kg/day (mouse, strain B6C3F1, males, in feed, site: liver, lesion: hepatocellular carcinoma, dosed 80 weeks, study length 90 weeks). Further, the TD50 runs as follows: (mouse, strain B6C3F1, males, in feed, site: liver, lesion: hepatocellular carcinoma, dosed 80 weeks, study length 92 weeks) 466 mg/kg/day; (mouse, strain B6C3F1, males, in feed, site: liver, lesion: hepatocellular carcinoma, dosed 103 weeks, study length 103 weeks) 1530 mg/kg/day; (mouse, strain B6C3F1, males, in feed, site: liver, lesion: neoplastic nodule, dosed 80 weeks, study length 90 weeks) 1770 mg/kg/day; (mouse, strain B6C3F1, males, in feed, site: liver, lesion: several types, types named in the paper, dosed 103 weeks, study length 103 weeks) 1150 mg/kg/day; (mouse, strain B6C3F1, males, in feed, site: lung, lesion: alveolar/bronchiolar adenoma + alveolar/bronchiolar carcinoma, dosed 80 weeks, study length 92 weeks) 401000 mg/kg/day; (rat, strain Osborne-Mendel, females, in feed, site: adrenal gland, lesion: cortical adenoma, dosed 80 weeks, study length 109 weeks) 2280 mg/kg/day. Further, the TD50 by setting is: (rat, strain Osborne-Mendel, females, in feed, site: pituitary gland, lesion: chromophobe adenoma, dosed 80 weeks, study length 111 weeks) 1580 mg/kg/day (inactive); (rat, strain Osborne-Mendel, females, in feed, site: thyroid gland, lesion: c-cell adenoma, dosed 80 weeks, study length 109 weeks) 1920 mg/kg/day. The carcinogen call (rat, strain Osborne-Mendel, males, in feed, site: any site (literature study), lesion: several types, types named in the paper, dosed 80 weeks, study length 111 weeks) was “negative (inactive)”.
In the case of `FC(F)(F)C(Cl)Cl`, the TD50 is, setting by setting: (rat, strain Charles River CD (Sprague-Dawley), females, inhaled, site: liver, lesion: cholangiofibroma, dosed 105 weeks, study length 105 weeks) 22700 mg/kg/day; (rat, strain Charles River CD (Sprague-Dawley), females, inhaled, site: liver, lesion: hepatocellular adenoma, dosed 105 weeks, study length 105 weeks) 20300 mg/kg/day; (rat, strain Charles River CD (Sprague-Dawley), females, inhaled, site: pancreas, lesion: acinar-cell adenoma, dosed 105 weeks, study length 105 weeks) 92100 mg/kg/day; (rat, strain Charles River CD (Sprague-Dawley), males, inhaled, site: liver, lesion: hepatocellular adenoma, dosed 105 weeks, study length 105 weeks) 13100 mg/kg/day; (rat, strain Charles River CD (Sprague-Dawley), males, inhaled, site: pancreas, lesion: acinar-cell adenoma, dosed 105 weeks, study length 105 weeks) 1260 mg/kg/day; (rat, strain Charles River CD (Sprague-Dawley), males, inhaled, site: pancreas, lesion: acinar-cell carcinoma, dosed 105 weeks, study length 105 weeks) 60800 mg/kg/day. Further, for the setting “rat, strain Charles River CD (Sprague-Dawley), males, inhaled, site: testis, lesion: interstitial-cell adenoma, dosed 105 weeks, study length 105 weeks”, the TD50 is 9050 mg/kg/day.
